According to US20080248487A1, “MODULATION OF PROTEIN FUNCTIONALITIES” (priority 2007, published 2008):

Target: T1, p38 MAP kinase (Homo sapiens, UniProt Q16539)
T1 construct: made in house; host or cells: E. coli
Assay: P38 MAP kinase binding assay (competition with fluorescent probe SKF 86002)
Details: time-dependent if the IC50 values decrease with the reaction time (more than two-fold in four hours)
Experimental: Thus, the ability of a small molecule to block fluoroprobe binding provides an experimental readout of binding to the switch control pocket. […] The reaction was initiated by addition of the enzyme. […] By comparison of rfu (relative fluorescence unit) values with that of a control (in the absence of small molecule modulators), the percentage of inhibition at each concentration of the small molecules were calculated. IC50 values for the small molecule modulators were calculated from the % inhibition values obtained at a range of concentrations of the small molecule modulators using Prism. When time-dependent inhibition was assessed, the plate was read at multiple reaction times such as 0.5, 1, 2, 3, 4 and 6 hours. The IC50 values were calculated at each time point. An inhibition was assigned as time-dependent if the IC50 values decrease with the reaction time (more than two-fold in four hours).

T1 sequence (Q16539 whole entry): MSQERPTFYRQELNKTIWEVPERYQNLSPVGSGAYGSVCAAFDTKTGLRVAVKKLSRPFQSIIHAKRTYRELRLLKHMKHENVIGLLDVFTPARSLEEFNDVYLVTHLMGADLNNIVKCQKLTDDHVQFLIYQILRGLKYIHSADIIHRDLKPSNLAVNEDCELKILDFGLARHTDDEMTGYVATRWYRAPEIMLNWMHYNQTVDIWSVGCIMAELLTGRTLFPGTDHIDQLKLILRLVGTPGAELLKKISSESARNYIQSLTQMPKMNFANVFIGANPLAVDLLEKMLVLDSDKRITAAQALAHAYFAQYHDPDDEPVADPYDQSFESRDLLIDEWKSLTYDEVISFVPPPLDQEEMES

Row | Compound | Time-dependent
1 | CC1(C(=O)O)CC2(C)CC(C)(C1)C(=O)N(Cc1cccc(-n3nc(C(C)(C)C)cc3NC(=O)Nc3cccc4ccccc34)c1)C2=O (stereo not shown) [Example 11] | No
2 | CC1(C(=O)O)CC2(C)CC(C)(C1)C(=O)N(Cc1cccc(-n3nc(C(C)(C)C)cc3NC(=O)Nc3ccc(Cl)cc3)c1)C2=O (stereo not shown) [Example 12] | No
3 | CC(C)(C)c1cc(NC(=O)Nc2cccc3ccccc23)n(-c2cccc(CC(=O)N3CCOCC3)c2)n1 [Example 21, 1-{3-tert-butyl-1-[3-(2-morpholino-2-oxoethyl)phenyl]-1H-pyrazol-5-yl}-3-(naphthalene-1-yl)urea] | Yes
4 | CC(C)(C)c1cc(NC(=O)Nc2cccc3ccccc23)n(-c2ccc(CN)cc2)n1 [Example 45, 1-{3-tert-butyl-1-[4-(aminomethyl)phenyl]-1H-pyrazol-5-yl}-3-(naphthalen-1-yl)urea] | No
